According to the supplement of paper PMC11061612:

How the values were obtained:
Assay in all cases: combination Emax (second highest fraction inhibited in the dose matrix, 72 h); higher = more inhibition; extreme values may be limits of the assay
A673 (Ewing's Sarcoma) = system: A673 (Ewing's Sarcoma)
Outline: (§1)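 Bliss excess equals the observed combination effect minus the expected value EA + EB − EA·EB, where EA and EB are the effects of each agent alone. Combination Emax is the second-highest inhibition within the matrix. Inhibition was scaled from CellTiter-Glo 2.0 luminescence, with 0 set by vehicle wells and 1 by blank wells, after 72 hours of two-drug dosing of cells plated in 1536-well plates.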

[1] = system: SNU-449 (Hepatocellular Carcinoma)
Outline: as §1

[2] = system: NCI-H524 (Small Cell Lung Carcinoma)
Outline: as §1

[3] = system: OV-56 (Ovarian Carcinoma)
Outline: as §1

[4] = system: HuCCT1 (Biliary Tract Carcinoma)
Outline: as §1

[5] = system: ALL-PO (B-Lymphoblastic Leukemia)
Outline: as §1

[6] = system: YAPC (Pancreatic Carcinoma)
Outline: as §1

[7] = system: BE-13 (T-Lymphoblastic Leukemia)
Outline: as §1

[8] = system: ESS-1 (Other Solid Carcinomas)
Outline: as §1

NCI-H2052 (Mesothelioma) = system: NCI-H2052 (Mesothelioma)
Outline: as §1

[9] = system: TGBC1TKB (Biliary Tract Carcinoma)
Outline: as §1

[10] = system: WSU-NHL (B-Cell Non-Hodgkin's Lymphoma)
Outline: as §1

LOXIMVI (Melanoma) = system: LOXIMVI (Melanoma)
Outline: as §1

NCI-H2722 (Mesothelioma) = system: NCI-H2722 (Mesothelioma)
Outline: as §1

[11] = system: SNU-16 (Gastric Carcinoma)
Outline: as §1

[12] = system: LNZTA3WT4 (Low Grade Glioma)
Outline: as §1

[13] = system: HuH-7 (Hepatocellular Carcinoma)
Outline: as §1

[14] = system: NCI-H1568 (Lung Adenocarcinoma)
Outline: as §1

[15] = system: OVCAR-5 (Ovarian Carcinoma)
Outline: as §1

[16] = system: SW1710 (Bladder Carcinoma)
Outline: as §1

NC1(C(=O)N[C@@H](CCO)c2ccc(Cl)cc2)CCN(c2ncnc3[nH]ccc23)CC1 [Capivasertib] + CC(C)n1c(=O)n(C)c2cnc3cc(F)c(-c4ccc(OCCCN5CCCCC5)nc4)cc3c21 [AZD1390] (first compound max 10 µM, 7x7, partner max 0.3 µM)
combination Emax (A673 (Ewing's Sarcoma)): 0.292 | combination Emax [1]: 0.174 | combination Emax [2]: 0.343 | combination Emax [3]: 0.209 | combination Emax [4]: 0.24 | combination Emax [5]: 0.521 | combination Emax [6]: 0.223 | combination Emax [7]: 0.296 | combination Emax [8]: 0.46 | combination Emax (NCI-H2052 (Mesothelioma)): 0.407 | combination Emax [9]: 0.358 | combination Emax [10]: 0.882 | combination Emax (LOXIMVI (Melanoma)): 0.401 | combination Emax (NCI-H2722 (Mesothelioma)): 0.34 | combination Emax [11]: 0.225 | combination Emax [12]: 0.372 | combination Emax [13]: 0.156 | combination Emax [14]: 0.163 | combination Emax [15]: 0.32 | combination Emax [16]: 0.348

C[C@@H]1COCCN1c1cc(C2([S@](C)(=N)=O)CC2)nc(-c2ccnc3[nH]ccc23)n1 [AZD6738] + O=C(c1cc(Cc2n[nH]c(=O)c3ccccc23)ccc1F)N1CCN(C(=O)C2CC2)CC1 [Olaparib] (first compound max 10 µM, 7x7, partner max 10 µM)
combination Emax (A673 (Ewing's Sarcoma)): 0.89 | combination Emax [1]: 0.234 | combination Emax [2]: 0.746 | combination Emax [3]: 0.69 | combination Emax [4]: 0.784 | combination Emax [5]: 0.955 | combination Emax [6]: 0.288 | combination Emax [7]: 0.702 | combination Emax [8]: 0.979 | combination Emax (NCI-H2052 (Mesothelioma)): 0.478 | combination Emax [9]: 0.397 | combination Emax [10]: 0.989 | combination Emax (LOXIMVI (Melanoma)): 0.978 | combination Emax (NCI-H2722 (Mesothelioma)): 0.292 | combination Emax [11]: 0.956 | combination Emax [12]: 0.778 | combination Emax [13]: 0.357 | combination Emax [14]: 0.416 | combination Emax [15]: 0.515 | combination Emax [16]: 0.495

CN(C)CCCOc1ccc(-c2ccc3ncc4c(c3c2)n(C2CCOCC2)c(=O)n4C)cn1 [AZD0156] + C[C@@H]1COCCN1C2=NC(=NC(=C2)C3(CC3)[S@](=N)(=O)C)C4=C5C=CNC5=NC=C4 [AZD6738] (first compound max 1 µM, 7x7, partner max 10 µM)
combination Emax (A673 (Ewing's Sarcoma)): 0.907 | combination Emax [1]: 0.176 | combination Emax [2]: 0.858 | combination Emax [3]: 0.741 | combination Emax [4]: 0.796 | combination Emax [5]: 0.922 | combination Emax [6]: 0.294 | combination Emax [7]: 0.723 | combination Emax [8]: 0.989 | combination Emax (NCI-H2052 (Mesothelioma)): 0.399 | combination Emax [9]: 0.397 | combination Emax [10]: 0.998 | combination Emax (LOXIMVI (Melanoma)): 0.908 | combination Emax (NCI-H2722 (Mesothelioma)): 0.248 | combination Emax [11]: 0.982 | combination Emax [12]: 0.778 | combination Emax [13]: 0.325 | combination Emax [14]: 0.49 | combination Emax [15]: 0.756 | combination Emax [16]: 0.509

NC1(C(=O)N[C@@H](CCO)c2ccc(Cl)cc2)CCN(c2ncnc3[nH]ccc23)CC1 [Capivasertib] + C[C@@H]1COCCN1C2=NC(=NC(=C2)C3(CC3)[S@](=N)(=O)C)C4=C5C=CNC5=NC=C4 [AZD6738] (first compound max 10 µM, 7x7, partner max 10 µM)
combination Emax (A673 (Ewing's Sarcoma)): 0.804 | combination Emax [1]: 0.262 | combination Emax [2]: 0.712 | combination Emax [3]: 0.542 | combination Emax [4]: 0.688 | combination Emax [5]: 0.99 | combination Emax [6]: 0.334 | combination Emax [7]: 0.731 | combination Emax [8]: 0.959 | combination Emax (NCI-H2052 (Mesothelioma)): 0.57 | combination Emax [9]: 0.559 | combination Emax [10]: 1 | combination Emax (LOXIMVI (Melanoma)): 0.779 | combination Emax (NCI-H2722 (Mesothelioma)): 0.533 | combination Emax [11]: 0.973 | combination Emax [12]: 0.79 | combination Emax [13]: 0.453 | combination Emax [14]: 0.664 | combination Emax [15]: 0.742 | combination Emax [16]: 0.596

COc1nnc2ccc(N3CCC(c4ccc(OCCN5CCN(C)C(=O)[C@H]5C)cc4)CC3)nn12 [AZD5153] + CC1(C)CCC(CN2CCN(c3ccc(C(=O)NS(=O)(=O)c4ccc(NCC5CCOCC5)c([N+](=O)[O-])c4)c(Oc4cnc5[nH]ccc5c4)c3)CC2)=C(c2ccc(Cl)cc2)C1 [Venetoclax] (first compound max 1 µM, 7x7, partner max 1 µM)
combination Emax (A673 (Ewing's Sarcoma)): 0.505 | combination Emax [1]: 0.252 | combination Emax [2]: 0.694 | combination Emax [3]: 0.24 | combination Emax [4]: 0.511 | combination Emax [5]: 0.889 | combination Emax [6]: 0.384 | combination Emax [7]: 0.708 | combination Emax [8]: 0.63 | combination Emax (NCI-H2052 (Mesothelioma)): 0.359 | combination Emax [9]: 0.293 | combination Emax [10]: 0.978 | combination Emax (LOXIMVI (Melanoma)): 0.882 | combination Emax (NCI-H2722 (Mesothelioma)): 0.471 | combination Emax [11]: 0.731 | combination Emax [12]: 0.344 | combination Emax [13]: 0.442 | combination Emax [14]: 0.251 | combination Emax [15]: 0.514 | combination Emax [16]: 0.291

COc1nnc2ccc(N3CCC(c4ccc(OCCN5CCN(C)C(=O)[C@H]5C)cc4)CC3)nn12 [AZD5153] + C=CCn1c(=O)c2cnc(Nc3ccc(N4CCN(C)CC4)cc3)nc2n1-c1cccc(C(C)(C)O)n1 [AZD1775] (first compound max 1 µM, partner max 1 µM)
combination Emax (A673 (Ewing's Sarcoma)): 0.602 | combination Emax [1]: 0.249 | combination Emax [2]: 0.908 | combination Emax [3]: 0.279 | combination Emax [4]: 0.767 | combination Emax [5]: 0.995 | combination Emax [6]: 0.461 | combination Emax [7]: 1 | combination Emax [8]: 0.898 | combination Emax (NCI-H2052 (Mesothelioma)): 0.407 | combination Emax [9]: 0.296 | combination Emax [10]: 0.952 | combination Emax (LOXIMVI (Melanoma)): 0.892 | combination Emax (NCI-H2722 (Mesothelioma)): 0.58 | combination Emax [11]: 0.871 | combination Emax [12]: 0.643 | combination Emax [13]: 0.682 | combination Emax [14]: 0.438 | combination Emax [15]: 0.563 | combination Emax [16]: 0.36
